Results: patent publication US11771662B2, “Analgesic formulation for control of pain in dogs” (Kansas State University Research Foundation, priority 2017, dated 2023)
Like-named read-outs stand apart in the source and are kept apart here.

How the values were obtained:
[1] = Plasma methadone, fluconazole, naltrexone and naltrexone metabolite concentrations (Example IV)
From the text: Anesthesia was monitored by licensed veterinary technicians.

[2] = group administered naltrexone 0.25 mg/kg PO with methadone and fluconazole
From the text: (§1) Twelve healthy Beagle dogs were divided into two groups of 6 each in a parallel study design. […] Rectal temperature was monitored as a marker of central opioid effects throughout the study.

[3] = Plasma methadone, naltrexone and naltrexone metabolites, multiple oral doses (Example III); format: in vivo, dog; details: multiple oral doses of methadone/fluconazole/naltrexone formulation
From the text: Twelve healthy Beagle dogs were divided into two groups of 6 each in a parallel study design. […] Group 1 simulated a patient dropped off the night before surgery, while Group 2 simulated a patient dropped off in the morning for same day early afternoon surgery. Rectal temperature was monitored as a marker of central opioid effects throughout the study and von Frey thresholds were obtained to assess the antinociceptive effects.

healthy Beagle dogs = assay: Rectal temperature as marker of central opioid effects, methadone/fluconazole with or without naltrexone (Example II); format: in vivo, dog; details: naltrexone 0.25 mg/kg PO added to methadone 1 mg/kg and fluconazole 5 mg/kg PO
From the text: as §1

Oc1ccc2c3c1O[C@H]1[C@H](O)CC[C@@]4(O)[C@@H](C2)N(CC2CC2)CC[C@]314 [β-naltrexol]
Highest measured plasma concentration ([1]; oral methadone groups): 1.7 ng/mL

O=C(O)[C@H]1O[C@@H](Oc2ccc3c4c2O[C@H]2C(=O)CC[C@@]5(O)[C@@H](C3)N(CC3CC3)CC[C@]425)[C@H](O)[C@@H](O)[C@@H]1O [naltrexone glucuronide]
Plasma detection of analyte ([1]; oral methadone groups): measured in most of the samples
Plasma detection of analyte [2]: detected
Plasma detection of analyte [3]: detected in both groups

O=C1CC[C@@]2(O)[C@H]3Cc4ccc(O)c5c4[C@@]2(CCN3CC2CC2)[C@H]1O5 [naltrexone]
Plasma detection of analyte ([1]; any group): not detected in any plasma sample from any group
Effect of addition of naltrexone on central opioid effects of methadone with fluconazole (healthy Beagle dogs): did not affect the central opioid effects
Plasma detection of analyte relative to LOQ of the assay (1 ng/mL) [2]: rarely detected above the LOQ
Plasma detection of analyte relative to LOQ of the assay (1 ng/mL) [3]: rarely detected above the LOQ
